{"source": "ChEMBL document CHEMBL1128093", "about": "“Discovery and optimization of indole pyrrolothiazole paf antagonists” (Bioorg Med Chem Lett, 1995)", "assay_type_in_all_cases": "functional", "key": {"[1]": {"test_system": "Rattus norvegicus", "test": "In vivo activity by inhibition of PAF-induced cutaneous vascular permeability in rats after intravenous administration"}, "[2]": {"test_system": "Rattus norvegicus", "test": "In vivo activity by inhibition of PAF-induced cutaneous vascular permeability in rats after peroral administration", "conditions": "po"}, "[3]": {"test_system": "Rattus norvegicus", "test": "xIn vivo activity by inhibition of PAF-induced cutaneous vascular permeability in rats after peroral administration", "conditions": "po"}, "[4]": {"test_system": "Rattus norvegicus", "test": "In vivo activity by inhibition of PAF-induced cutaneous vascular permeability in rats after peroral administration of 10 mg/kg dose", "conditions": "route oral"}, "[5]": {"test_system": "Rattus norvegicus", "test": "In vivo activity by inhibition of PAF-induced cutaneous vascular permeability in rats after intravenous administration of 1 mg/kg dose"}, "[6]": {"test_system": "Rattus norvegicus", "test": "In vivo activity by inhibition of PAF-induced cutaneous vascular permeability in rats after peroral administration of 30 mg/kg dose", "conditions": "route oral"}}, "data": [{"smiles": "CN(C)C(=O)Cn1cc(C(=O)c2ccn3c2CSC3c2cccnc2)c2ccc(-c3ccc(F)cc3)cc21", "note": "(stereo not given)", "values": [{"measurement": "ED50", "setting": "[1]", "result": 0.009, "unit": "mg/kg"}, {"measurement": "ED50", "setting": "[2]", "result": 0.12, "unit": "mg/kg"}]}, {"smiles": "NC(=O)n1cc(C(=O)c2ccn3c2CSC3c2cccnc2)c2ccc(-c3ccc(F)cc3)cc21", "note": "(stereo not given)", "values": [{"measurement": "ED50", "setting": "[1]", "result": 0.01, "unit": "mg/kg"}, {"measurement": "ED50", "setting": "[2]", "result": 0.06, "unit": "mg/kg"}]}, {"smiles": "CN(C)C(=O)n1cc(C(=O)c2ccn3c2CSC3c2cccnc2)c2ccc(Cc3ccccc3)cc21", "note": "(stereo not given)", "values": [{"measurement": "ED50", "setting": "[1]", "result": 0.09, "unit": "mg/kg"}]}, {"smiles": "CN(C)C(=O)n1cc(C(=O)c2ccn3c2CSC3c2cccnc2)c2ccc(OCc3ccccc3)cc21", "note": "(stereo not given)", "values": [{"measurement": "ED50", "setting": "[2]", "result": 3.3, "unit": "mg/kg"}]}, {"smiles": "O=C(c1ccn2c1CSC2c1cccnc1)c1cn(CCO)c2cc(-c3ccc(F)cc3)ccc12", "note": "(stereo not given)", "values": [{"measurement": "ED50", "setting": "[1]", "result": 0.1, "unit": "mg/kg"}, {"measurement": "ED50", "setting": "[2]", "result": 0.76, "unit": "mg/kg"}]}, {"smiles": "CN(C)S(=O)(=O)n1cc(C(=O)c2ccn3c2CSC3c2cccnc2)c2ccc(-c3ccc(F)cc3)cc21", "note": "(stereo not given)", "values": [{"measurement": "ED50", "setting": "[3]", "result": 5.5, "unit": "mg/kg"}]}, {"smiles": "CNC(=O)n1cc(C(=O)c2ccn3c2CSC3c2cccnc2)c2ccc(-c3ccc(F)cc3)cc21", "note": "(stereo not given)", "values": [{"measurement": "ED50", "setting": "[2]", "result": 0.12, "unit": "mg/kg"}]}, {"smiles": "CN(C)C(=O)n1cc(C(=O)c2ccn3c2CSC3c2cccnc2)c2ccc(-c3cccnc3)cc21", "note": "(stereo not given)", "values": [{"measurement": "inhibition in vivo at 10 mg/kg", "setting": "[4]", "result": 58, "unit": "%"}]}, {"smiles": "CN(C)C(=O)n1cc(C(=O)c2ccn3c2CSC3c2cccnc2)c2ccc(Br)cc21", "note": "(stereo not given)", "values": [{"measurement": "ED50", "setting": "[2]", "result": 1.5, "unit": "mg/kg"}, {"measurement": "inhibition in vivo at 1 mg/kg", "setting": "[5]", "result": 41, "unit": "%"}]}, {"smiles": "NCCn1cc(C(=O)c2ccn3c2CSC3c2cccnc2)c2ccc(-c3ccc(F)cc3)cc21", "note": "(stereo not given)", "values": [{"measurement": "ED50", "setting": "[2]", "result": 1.3, "unit": "mg/kg"}]}, {"smiles": "NNC(=O)n1cc(C(=O)c2ccn3c2CSC3c2cccnc2)c2ccc(-c3ccc(F)cc3)cc21", "note": "(stereo not given)", "values": [{"measurement": "ED50", "setting": "[1]", "result": 0.04, "unit": "mg/kg"}, {"measurement": "ED50", "setting": "[2]", "result": 0.57, "unit": "mg/kg"}]}, {"smiles": "CCNC(=O)n1cc(C(=O)c2ccn3c2CSC3c2cccnc2)c2ccc(-c3ccc(F)cc3)cc21", "note": "(stereo not given)", "values": [{"measurement": "ED50", "setting": "[1]", "result": 0.18, "unit": "mg/kg"}]}, {"smiles": "CN(C)C(=O)n1cc(C(=O)c2ccn3c2CSC3c2cccnc2)c2ccc(-c3ccccc3)cc21", "note": "(stereo not given)", "values": [{"measurement": "ED50", "setting": "[1]", "result": 0.03, "unit": "mg/kg"}, {"measurement": "ED50", "setting": "[2]", "result": 0.06, "unit": "mg/kg"}]}, {"smiles": "O=C(c1ccn2c1CSC2c1cccnc1)c1c[nH]c2cc(-c3ccc(F)cc3)ccc12", "note": "(stereo not given)", "values": [{"measurement": "ED50", "setting": "[2]", "result": 6.4, "unit": "mg/kg"}]}, {"smiles": "CN(C)C(=O)n1cc(C(=O)c2ccn3c2CSC3c2cccnc2)c2ccc(-c3ccc(F)cc3)cc21", "note": "(stereo not given)", "values": [{"measurement": "ED50", "setting": "[1]", "result": 0.006, "unit": "mg/kg"}, {"measurement": "ED50", "setting": "[2]", "result": 0.06, "unit": "mg/kg"}]}, {"smiles": "CN(C)C(=O)n1cc(C(=O)c2ccn3c2CSC3c2cccnc2)c2ccc(Cl)cc21", "note": "(stereo not given)", "values": [{"measurement": "ED50", "setting": "[2]", "result": 1.4, "unit": "mg/kg"}, {"measurement": "inhibition in vivo at 1 mg/kg", "setting": "[5]", "result": 42, "unit": "%"}]}, {"smiles": "Cn1cc(C(=O)c2ccn3c2CSC3c2cccnc2)c2ccc(-c3ccc(F)cc3)cc21", "note": "(stereo not given)", "values": [{"measurement": "ED50", "setting": "[1]", "result": 0.09, "unit": "mg/kg"}]}, {"smiles": "CN(C)C(=O)n1cc(C(=O)c2ccn3c2CSC3c2cccnc2)c2ccc(Oc3ccc(F)cc3)cc21", "note": "(stereo not given)", "values": [{"measurement": "ED50", "setting": "[1]", "result": 0.03, "unit": "mg/kg"}]}, {"smiles": "O=C(O)CCn1cc(C(=O)c2ccn3c2CSC3c2cccnc2)c2ccc(-c3ccc(F)cc3)cc21", "note": "(stereo not given)", "values": [{"measurement": "ED50", "setting": "[1]", "result": 0.1, "unit": "mg/kg"}, {"measurement": "ED50", "setting": "[2]", "result": 5.1, "unit": "mg/kg"}]}, {"smiles": "CN(C)C(=O)n1cc(C(=O)c2ccn3c2CSC3c2cccnc2)c2ccc(Sc3ccc(F)cc3)cc21", "note": "(stereo not given)", "values": [{"measurement": "ED50", "setting": "[1]", "result": 0.27, "unit": "mg/kg"}]}, {"smiles": "CN(C)C(=O)n1cc(C(=O)c2ccn3c2CSC3c2cccnc2)c2ccccc21", "note": "(stereo not given)", "values": [{"measurement": "inhibition in vivo at 30 mg/kg", "setting": "[6]", "result": 34, "unit": "%"}]}]}
